Data published in article PMC11738990, “A small-molecule TNIK inhibitor targets fibrosis in preclinical and clinical models” (Nature Biotechnology, 2024).
Values joined by “and” are separate entries in the source; they are usually repeats but may differ in a detail not shown here. Identical values can stand only once.

Experiments:
C57BL/6 mice [1] = assay: LPS-induced acute lung injury model; type: in vivo, mouse; conditions: G3 Dex 10mpk BID; individual animals, Fig 3E-F; listed as Dex;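 also: bronchoalveolar lavage fluid sampled one day after intratracheal LPS challenge, cytokines measured by ELISA in supernatant, lymphocytes counted on Diff-Quick stained cytospin smears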
Protocol: One day before the first experimental day, animals were grouped. All mice were anesthetized with Zoletil–xylazine (50 mpk and 10 mpk, i.p.). At 0 h, mice received LPS at a dose of 50 μl as 50 μg per mouse (groups 2–5, n = 8 per group) or 50 μl saline (group 1, n = 8 per group) by intratracheal administration. […] In the dexamethasone group (group 5), animals were treated with dexamethasone both 2 h before and 4 h after the LPS challenge. Twenty-four hours after the LPS challenge, animals were euthanized, and BALF samples were collected.
(§1) Mice were first anesthetized with Zoletil–xylazine (50 mpk and 10 mpk, i.p.). Next, a 1.5–2-cm longitudinal incision was made on the ventral side of the neck to expose the trachea by blunt dissection, and curved forceps were placed underneath the trachea. A 10–12-cm piece of suture was then threaded underneath the trachea using forceps. The ends of the suture were then pulled cranially to ‘stretch’ the trachea toward the surgeon. A 20-G needle was then used to poke a hole in the trachea as close to the larynx as possible. A 22-G blunt stainless steel needle connected to PE tubing was placed in the hole and inserted approximately 5–8 mm into the trachea. The cannula was secured in the trachea by tying the suture around it with an overhand knot. A 1-ml syringe containing 0.4 ml saline was gently pushed forward and backward three times to recover BALF fluid. BALF was transferred into empty tubes and stored on ice. This process was repeated twice with 0.3 ml saline for a total volume of 1 ml.
(§2) Total cell numbers were counted with a standard hemocytometer by mixing 20 μl BALF with 20 μl trypan blue. Cytospins were prepared by cytocentrifugation using Cytospins at 106g for 5 min, and then smears of BALF cells were stained with Diff-Quick stain. Cell differentiation was performed by counting at least 400 cells using standard hemocytologic criteria to classify them as alveolar macrophages or monocytes, neutrophils, eosinophils or lymphocytes. The rest of the BALF fluid was centrifuged, and supernatants were collected and stored at −80 °C for cytokine, chemokine and total protein analysis.
(§3) From the collected BALF, concentrations of cytokines were measured from mice in groups 2–7 killed on day 28. Mouse BALF cytokines and chemokines were measured using the ELISA Analysis Kit (Sinobest Bio). Mouse BALF soluble collagen was measured using the Soluble Collagen kit (Biocolor). Mouse lung hydroxyproline content was measured using the Hydroxyproline Assay Kit (Njjcbio).

[2] = tested on: cyclin-dependent kinase (CDK)2; conditions: 0.1 μM; cited from earlier work
C57BL/6 mice [3] = assay: Bleomycin-induced lung fibrosis model; type: in vivo, mouse; conditions: individual animals
Protocol: (§4) Mice received bleomycin on day 1 at a dose of 0.66 mg per kg (equivalent to 1 U per kg), in a volume of 50 μl by intratracheal administration, or received saline (sham group). On day 7, dosing with the corresponding compounds was started. The vehicle group (group 1) was treated with 0.5% methylcellulose BID. […] On days 5 and 21, lung function measurement was performed. On day 28, all animals were killed, and blood and tissue samples were collected along with BALF.
(§5) Lung function was measured according to the HDB standard protocol. Expiratory time, relaxation time, peak expiratory flow and peak inspiratory flow were collected and used to calculate Penh data.
as §1, §2, §3
Left lung lobes were removed from each mouse and fixed in 10% NBF solution, embedded in paraffin and processed to obtain 4-μm sections for staining with H&E. H&E-stained slides were scanned using an Aperio ScanScope Model CS2 (Leica) at ×200 magnification. Images were then opened in the HALO Plus 5 workstation (version 2.3, Indica Labs) program. Using the pen annotation tool, the whole-lung section was selected as an annotation layer. The area of vessels was defined as background using the exclusion drawing tool. The total inflammation area was quantified by selecting the dark blue inflammation cells using the pen annotation tool manually. The percentage of H&E staining (inflammation area/total area of the lung) in the selected annotation was then calculated using the program.
Masson’s trichrome staining was conducted using a ready-to-use kit (Trichrome Stain (Masson) Kit, HT15, Sigma-Aldrich) as described by the manufacturer.
Lung sections were cut at a thickness of 4 μm, dried in an oven for 1 h and stained with M&T using our standard protocol.

Sprague Dawley rats = assay: Bleomycin-induced lung fibrosis model, inhalation administration; type: in vivo, rat; conditions: Pirfenidone 350 mg/kg; individual animals, Fig 4
Protocol: On day 1 of the study, bleomycin hydrochloride was administered to 8–9-week-old Sprague Dawley rats at a final concentration of 1.5 mg ml^−1 in sodium chloride solution (dosed volume at 1.0 ml per kg) by intratracheal atomization (once in the morning and once in the afternoon) to build the pulmonary fibrosis model.
A German PARI compression atomizer (PARI TurboBOY) was set at an aerosol flow rate of 9–10 l min^−1. […] The dilution flow of aerosol was set at 0 l min^−1, and the pumping-out flow from the chamber was set at 6 l min^−1. The fluid rate was set at 0.5 ml min^−1 for test article replenishment. Before nebulization, aerosol-generation conditions were validated three times.
And these parameters were recorded in real time during the experiment.
For concentration assessment, a glass fiber filter membrane (φ = 37 mm) was used to measure aerosol concentrations during drug administration from approximately day 8 to day 28. Sampling was taken at 5 min (±1 min) after drug administration from a random exposure port. […] Aerosol particle size parameters were calculated with the system software: median mass aerodynamic diameter (MMAD), geometric standard deviation, fine particle fraction (percentage of fine particles with MMAD < 5 μm), etc.
On day 29 and before euthanasia, animals were anesthetized with chloral hydrate (90 mg ml^−1, 5 ml per kg, i.p.). Necks were cut longitudinally at the middle to isolate trachea, and a catheter was intubated into the trachea toward the tail direction and fixed with a suture thread. The anesthetized animals were placed into the plethysmography chamber, to which the airway was connected. The AniRes2005 animal lung function-analysis system was used to assess parameters including FVC, airway resistance and pulmonary compliance. The ventilator respiration rate was set to 65 beats per minute; the respiration ratio was set to 20:10; the negative pressure controller was set to 30 cm H2O. FVC detection was set to pressure-control mode, while pressure was set to 30 cm H2O. The startup mode was selected to automatically detect at the end of breath, and the ‘Start’ button was clicked to passively inhale and then turned to exhale after reaching the set pressure value. Next, the ‘Stop’ button was clicked to complete an FVC detection. Each animal was evaluated for FVC at least five times. The final result was the mean value after the maximum and minimum data were excluded for analysis.

C57BL/6 mice [4] = assay: Bleomycin-induced lung fibrosis model, combination with pirfenidone; type: in vivo, mouse; conditions: PFD 60 BID
Protocol: as §4, §5
Lung sections were cut at a thickness of 4 μm, dried in an oven for 1 h and stained with M&T using our standard protocol. Briefly, sections were stained with Weigert’s iron hematoxylin working solution for 10 min, stained in Biebrich scarlet–acid fuchsin solution for 10 min, differentiated in phosphomolybdic–phosphotungstic acid solution for 5 min or until the collagen was not red, transferred to aniline blue solution, stained for 1 min and then dedifferentiated in 1% acetic acid solution. Next, sections were dehydrated and coverslipped for subsequent image analysis. For image analysis of collagen deposition, Masson’s trichrome-stained slides were scanned by using Aperio ScanScope Model CS2 (Leica) at ×200 magnification. Images were then opened with HALO. Using the pen tool, the whole left lung section was selected as an annotation layer. The area occupied by blue collagen fibers was measured using the pen tool. The percentage of fibrosis (positive areas) in the selected annotation was then calculated with the program. Fibrosis was expressed as a percentage per lung section.
Sections (4 μm thick) were placed on slides, and, after overnight drying, paraffin was removed with xylene. Next, sections were placed in a graded ethanol series and immersed in distilled water. After heat-induced citrate antigen (pH 6.0) unmasking, sections were immersed in 3% hydrogen peroxide solution for 5 min. […] Next, secondary antibodies conjugated to HRP were added. For image analysis of fibrosis, stained sections were used and scanned with the Aperio CS2 Scanner machine. Images were then opened with HALO. Using the pen tool, the whole left lung section was selected as an annotation layer. The bronchus was excluded in the annotation layer. The area occupied by collagen fibers was measured using the ‘Area Quantification v2.1.3’ module. The percentage of positive areas in the selected annotation was then calculated using the program.

C57BL/6 mice [5] = assay: Unilateral ureteral obstruction (UUO) kidney fibrosis model; conditions: SB525334 100 mg/kg QD, individual animals, Fig 5C-D;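 also: mice had the left ureter ligated on day 0, received treatment from day 0 through day 14 and were killed on day 14 for kidney analysis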
Protocol: The surgery took place on two separate days. Mice were divided into two slots based on their body weight before the day of the surgery. On day 0 (day of surgery), UUO surgery was performed after administration of three types of mixed anesthetic agents (medetomidine, midazolam, butorphanol). Mice were shaved at the incision site, the abdomen was cut open, and the left ureter was exteriorized and ligated with 4-0 silk sutures at two points. Finally, the peritoneum and the skin were closed with sutures.
Treatments were applied from day 0 to day 14. And animals were killed on day 14, and blood and tissue samples were collected.
Frozen kidney samples were processed by an alkaline acid hydrolysis method as follows. […] Next, AC buffer (2.2 M acetic acid and 0.48 M citric acid, 400 μl) was added to the samples, followed by centrifugation to collect the supernatant. […] The samples were then mixed with Ehrlich’s solution (400 μl) and heated at 65 °C for 20 min to develop color. After samples were cooled on ice and centrifuged to remove precipitates, the optical density of each supernatant was measured at 560 nm. Hydroxyproline concentrations were calculated from the hydroxyproline standard curve. Kidney hydroxyproline contents were expressed as μg per mg protein, and the amount of protein was determined using the BCA Protein Assay Kit (Thermo Fisher Scientific).
At the end of the UUO study, the left kidney was fixed in Bouin’s solution and embedded in paraffin. Kidney sections were stained using picro-Sirius red solution (Waldeck). To quantify the interstitial fibrosis area, brightfield images in the corticomedullary region were captured using a digital camera (DFC295) at 200-fold magnification, and the positive areas in five fields per section were measured using ImageJ software (National Institute of Health).
Paraffin sections were deparaffinized and hydrophilized with xylene, 100–70% alcohol series and RO water, and then circles were drawn around the kidney sections. […] After washing with PBS, kidney sections were treated with PBS with Tween-20 (PBST), followed by incubation with Block Ace (DS Pharma Biomedical) at room temperature for 10 min. The sections were incubated with the primary antibody (anti-collagen I) at 4 °C overnight. After washing with PBS, kidney sections were treated with PBST, followed by incubation with secondary antibody at room temperature for 30 min. After washing with PBS, kidney sections were fixed with 1% glutaraldehyde solution at room temperature for 1 min. After washing with RO water, kidney sections were treated with PBST and then colored using a chromogenic substrate (Simple Stain DAB, Nichirei Bioscience). After washing with RO water, kidney sections were immersed in an eightfold-diluted hematoxylin solution for 1 min and washed with RO water immediately. […] For scoring of IHC analyses, brightfield images were captured using a digital camera (DFC295) at 200-fold magnification, and the score in one field per section was determined.

[6] = G5 Nintedanib 60mpk QD, Fig 3B-C

For `C[C@@H]1C[C@H]2[C@@H]3CCC4=CC(=O)C=C[C@]4(C)[C@@]3(F)[C@@H](O)C[C@]2(C)[C@@]1(O)C(=O)CO` [Dexamethasone, reference compound], the IL-1β (C57BL/6 mice [1]) was 90.1547 and 104.645 and 85.96 and 83.2907 and 79.4774 and 99.688 and 85.1973 and 77.1894, the IL-4 (C57BL/6 mice [1]) was 38.428 and 35.2518 and 35.7056 and 41.1504 and 38.1255 and 36.613 and 38.8817 and 44.3266 and the IL-6 (C57BL/6 mice [1]) was 27.9 and 24.66 and 28.93 and 26.28 and 30.56 and 33.5 and 31.73 and 30.41. The IL-7 (C57BL/6 mice [1]) was 25.06 and 25.43 and 30.03 and 28.19 and 29.85 and 32.24 and 34.63 and 29.29, the Lymphocytes (C57BL/6 mice [1]) was 11000 and 9300 and 5750 and 9600 and 6400 and 32400 and 4950 and 10750 and the TNF-alpha (C57BL/6 mice [1]) was 362.89 and 452.57 and 397.89 and 371.64 and 437.26 and 448.2 and 351.95 and 301.64.
In the case of `OC1CCC(Oc2cccc3cnc(Nc4ccc5nc[nH]c5c4)nc23)CC1` (stereo not drawn) [NCB-0846], the inhibition [2] is given as > 80%.
For `COC(=O)c1ccc2c(c1)NC(=O)/C2=C(\Nc1ccc(N(C)C(=O)CN2CCN(C)CC2)cc1)c1ccccc1` [Nintedanib, reference compound], the “HE staining (inflammation area)” value (C57BL/6 mice [3]; 60mpk QD) was 0.45 and 0.15 and 0.63 and 0.09 and 1.34 and 0.26 and 0.72 and 0.83 and 1.48 and 0.9, the “IL-1beta in BALF” value (C57BL/6 mice [3]; 60mpk QD) was 168.67 and 169.31 and 175.04 and 171.22 and 152.11 and 187.14 and 147.65 and 164.21 and the “IL-6 in BALF” value (C57BL/6 mice [3]; 60mpk QD) was 147.17 and 136.31 and 119.43 and 143.55 and 137.52 and 155.01 and 125.46 and 138.12 and 158.63. The “monocytes, cell count in BALF” value (C57BL/6 mice [3]; 60mpk QD) was 87000 and 128700 and 121600 and 174600 and 58800 and 161100 and 39800 and 37000 and 99000 and 75600, the “neutrophils, cell count in BALF” value (C57BL/6 mice [3]; 60mpk QD) was 0 and the “Lung function (Penh)” value (C57BL/6 mice [3]; [6]) was 0.5478 and 2.603 and 0.6904 and 2.472 and 0.7934 and 0.9276 and 0.6395 and 0.7208 and 1.0675 and 0.6757 and 1.195 and 2.42 and 0.41. For the same compound, the “Masson Trichrome's staining” value (C57BL/6 mice [3]; [6]) was 0.55 and 0.4 and 0.78 and 0.03 and 1.61 and 0.54 and 0.87 and 0.56 and 1.52 and 0.39, the “Modified Ashcroft Score” value (C57BL/6 mice [3]; [6]) was 3.5 and 2.5 and 1.75 and 1.25 and 2.25 and 3.25 and 0.5 and the “collagen I” value (C57BL/6 mice [3]; [6]) was 2.73 and 0.02 and 0.37 and 0.05 and 0.16 and 0.9 and 0.94 and 0.03 and 0.07. The α-SMA (C57BL/6 mice [3]; [6]) was 0.19 and 0.04 and 0.06 and 0.17 and 0.42 and 0.08 and 0.45 and 0.15 and 0.22 and 0.14.
With `Cc1ccc(=O)n(-c2ccccc2)c1` [PFD, reference compound] the Cdyn (Sprague Dawley rats) was 0.3225 mL/cmH2O and 0.3123 mL/cmH2O and 0.3091 mL/cmH2O and 0.2795 mL/cmH2O and 0.2995 mL/cmH2O and 0.311 mL/cmH2O and 0.2781 mL/cmH2O and 0.3041 mL/cmH2O and 0.3215 mL/cmH2O and 0.2768 mL/cmH2O and 0.3388 mL/cmH2O and 0.3313 mL/cmH2O, the FVC (Sprague Dawley rats) was 11.834 and 11.621 and 10.998 and 9.152 and 10.235 and 10.576 and 10.334 and 10.683 and 12.105 and 9.791 and 11.908 and 11.529 and the “HE staining for inflammatory infiltration” value (Sprague Dawley rats) was 7.178 and 19.4033 and 79.9063 and 22.6394 and 11.901 and 21.4024 and 18.4629 and 10.7655 and 14.7132 and 7.539 and 10.0121 and 11.9271. For the same compound, the “MT staining for fibrosis” value (Sprague Dawley rats) was 10.0525 and 23.681 and 70.2292 and 22.9771 and 14.4065 and 16.7608 and 19.0061 and 11.0741 and 14.7041 and 7.51 and 11.2668 and 15.3486, the “Modified Ashcroft Score” value (Sprague Dawley rats) was 2.42 and 3.08 and 3.92 and 2.83 and 3.17 and 2.75 and 2 and 2.08 and 2.33 and 2.5 and the RL (Sprague Dawley rats) was 0.1938 cmH2O and 0.2018 cmH2O and 0.2011 cmH2O and 0.2233 cmH2O and 0.2084 cmH2O and 0.2023 cmH2O and 0.2267 cmH2O and 0.2069 cmH2O and 0.196 cmH2O and 0.2278 cmH2O and 0.184 cmH2O and 0.1887 cmH2O. The “Modified Ashcroft Score” value (C57BL/6 mice [4]) was 4.5 and 5.25 and 5 and 4.75 and 5.5 and 4.25.
For `Cc1cccc(-c2[nH]c(C(C)(C)C)nc2-c2ccc3nccnc3c2)n1` [SB525334, reference compound], the “Collagen Type 1 score” value (C57BL/6 mice [5]) was 1, the “Fibrosis area (sirius red positive area)” value (C57BL/6 mice [5]; 100 mg/kg) was 0.79 and 1.13 and 0.97 and 0.36 and 0.56 and 0.41 and 0.76 and 0.48 and the Kidney hydroxyproline (C57BL/6 mice [5]; 100 mg/kg) was 3.88 and 4.04 and 4.13 and 2.51 and 3.1 and 4.54 and 4.91.
